Assay results published in paper PMC9898036, “VIP152 is a selective CDK9 inhibitor with pre-clinical in vitro and in vivo efficacy in chronic lymphocytic leukemia” (Leukemia, 2022).

Assays:
Format in all cases: binding
[1] = system: Purinergic P2X; experiment: Eurofins Diversity Panel; details: rabbit, Conc. 10 μM
[2] = biological target: human kinome (Homo sapiens, UniProt Q9Y6E0); experiment: DiscoverX KINOMEscan kinase profiling (468 assays); details: MST3 (Entrez STK24); 100 nM; read-out: Percent Control
How it was run: (§1)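 VIP152 was run in DMSO, alongside a DMSO control. Readout was qPCR of DNA-tagged kinase still bound to bead-immobilized biotinylated kinase ligands after compound competition.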

[3] = biological target: human kinome (Homo sapiens, UniProt Q12851); experiment: DiscoverX KINOMEscan kinase profiling (468 assays); details: MAP4K2; 100 nM; read-out: Percent Control
How it was run: as §1

[4] = biological target: human kinome (Homo sapiens, UniProt Q86V86); experiment: DiscoverX KINOMEscan kinase profiling (468 assays); details: read-out: Percent Control
How it was run: as §1

[5] = biological target: human kinome (Homo sapiens, UniProt O14976); experiment: DiscoverX KINOMEscan kinase profiling (468 assays); details: GAK; 100 nM; read-out: Percent Control
How it was run: as §1

[6] = biological target: human kinome (Homo sapiens, UniProt Q16539); experiment: DiscoverX KINOMEscan kinase profiling (468 assays); details: read-out: Percent Control
Chain of human kinome (Homo sapiens, UniProt Q16539) (Q16539 whole entry): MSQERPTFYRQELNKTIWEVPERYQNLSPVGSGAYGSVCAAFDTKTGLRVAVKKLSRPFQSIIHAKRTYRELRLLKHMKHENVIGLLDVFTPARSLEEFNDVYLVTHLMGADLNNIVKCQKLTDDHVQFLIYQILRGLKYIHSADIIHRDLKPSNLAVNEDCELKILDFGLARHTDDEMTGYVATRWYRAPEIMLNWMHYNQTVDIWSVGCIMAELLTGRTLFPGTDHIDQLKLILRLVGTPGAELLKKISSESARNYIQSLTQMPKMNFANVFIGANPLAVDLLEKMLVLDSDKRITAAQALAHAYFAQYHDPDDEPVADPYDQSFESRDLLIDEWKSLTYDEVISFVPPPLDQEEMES
How it was run: as §1

[7] = biological target: human kinome (Homo sapiens, UniProt Q04771); experiment: DiscoverX KINOMEscan kinase profiling (468 assays); details: ACVR1; 100 nM; read-out: Percent Control
How it was run: as §1

[8] = biological target: human kinome (Homo sapiens, UniProt P42336, H1047L); experiment: DiscoverX KINOMEscan kinase profiling (468 assays); details: read-out: Percent Control
Chain of human kinome (Homo sapiens, UniProt P42336, H1047L) (P42336 whole entry H1047L): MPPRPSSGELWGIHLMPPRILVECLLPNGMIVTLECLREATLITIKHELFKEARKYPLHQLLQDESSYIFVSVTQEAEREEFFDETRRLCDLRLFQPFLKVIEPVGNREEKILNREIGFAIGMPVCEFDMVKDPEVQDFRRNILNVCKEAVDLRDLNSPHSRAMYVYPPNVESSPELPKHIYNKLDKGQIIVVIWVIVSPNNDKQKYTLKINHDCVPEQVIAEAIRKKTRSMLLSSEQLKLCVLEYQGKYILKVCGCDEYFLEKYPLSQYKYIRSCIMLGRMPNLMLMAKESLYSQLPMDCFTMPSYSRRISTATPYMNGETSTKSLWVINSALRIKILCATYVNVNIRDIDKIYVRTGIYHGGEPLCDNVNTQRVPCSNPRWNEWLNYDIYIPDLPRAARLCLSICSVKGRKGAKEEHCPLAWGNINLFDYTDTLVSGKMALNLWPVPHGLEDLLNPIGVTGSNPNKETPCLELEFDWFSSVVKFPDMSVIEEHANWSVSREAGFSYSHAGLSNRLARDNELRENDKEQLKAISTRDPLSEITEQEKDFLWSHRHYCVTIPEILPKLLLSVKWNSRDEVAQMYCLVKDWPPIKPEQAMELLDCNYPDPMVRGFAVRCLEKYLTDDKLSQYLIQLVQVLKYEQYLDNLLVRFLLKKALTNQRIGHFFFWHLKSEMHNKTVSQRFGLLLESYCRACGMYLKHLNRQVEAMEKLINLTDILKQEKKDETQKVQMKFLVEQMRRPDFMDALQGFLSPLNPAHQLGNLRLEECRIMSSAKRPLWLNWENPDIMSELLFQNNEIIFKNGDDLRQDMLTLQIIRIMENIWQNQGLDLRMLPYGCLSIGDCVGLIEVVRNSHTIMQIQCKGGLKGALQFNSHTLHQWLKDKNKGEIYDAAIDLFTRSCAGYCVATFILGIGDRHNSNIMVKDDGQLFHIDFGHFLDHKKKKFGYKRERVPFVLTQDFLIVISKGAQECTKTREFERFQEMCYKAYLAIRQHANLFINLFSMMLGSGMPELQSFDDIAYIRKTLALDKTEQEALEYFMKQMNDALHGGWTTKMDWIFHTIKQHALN
How it was run: as §1

[9] = biological target: human kinome (Homo sapiens, UniProt O75716); experiment: DiscoverX KINOMEscan kinase profiling (468 assays); details: kinase STK16 (Entrez STK16); compound concentration 1000 nM; read-out: Percent Control
How it was run: as §1

[10] = biological target: human kinome (Homo sapiens, UniProt Q8TDC3); experiment: DiscoverX KINOMEscan kinase profiling (468 assays); details: BRSK1; 100 nM; read-out: Percent Control
How it was run: as §1

[11] = biological target: human kinome (Homo sapiens, UniProt O43293); experiment: DiscoverX KINOMEscan kinase profiling (468 assays); details: DAPK3; 100 nM; read-out: Percent Control
Chain of human kinome (Homo sapiens, UniProt O43293) (O43293 whole entry): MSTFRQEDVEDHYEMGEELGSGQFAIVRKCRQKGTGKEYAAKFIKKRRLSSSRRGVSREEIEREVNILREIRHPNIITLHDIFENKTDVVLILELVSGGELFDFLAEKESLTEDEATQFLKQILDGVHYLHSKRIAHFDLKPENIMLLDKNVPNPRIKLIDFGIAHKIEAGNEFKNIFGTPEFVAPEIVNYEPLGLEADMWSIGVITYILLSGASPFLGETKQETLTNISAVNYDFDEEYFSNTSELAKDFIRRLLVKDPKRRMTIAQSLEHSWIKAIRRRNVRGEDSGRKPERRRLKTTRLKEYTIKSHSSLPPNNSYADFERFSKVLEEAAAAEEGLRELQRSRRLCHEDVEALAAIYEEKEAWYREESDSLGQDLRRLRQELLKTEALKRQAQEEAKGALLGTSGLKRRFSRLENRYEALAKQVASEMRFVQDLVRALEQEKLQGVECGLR
How it was run: as §1

[12] = biological target: human kinome (Homo sapiens, UniProt Q9P1W9); experiment: DiscoverX KINOMEscan kinase profiling (468 assays); details: read-out: Percent Control
Chain of human kinome (Homo sapiens, UniProt Q9P1W9) (Q9P1W9 whole entry): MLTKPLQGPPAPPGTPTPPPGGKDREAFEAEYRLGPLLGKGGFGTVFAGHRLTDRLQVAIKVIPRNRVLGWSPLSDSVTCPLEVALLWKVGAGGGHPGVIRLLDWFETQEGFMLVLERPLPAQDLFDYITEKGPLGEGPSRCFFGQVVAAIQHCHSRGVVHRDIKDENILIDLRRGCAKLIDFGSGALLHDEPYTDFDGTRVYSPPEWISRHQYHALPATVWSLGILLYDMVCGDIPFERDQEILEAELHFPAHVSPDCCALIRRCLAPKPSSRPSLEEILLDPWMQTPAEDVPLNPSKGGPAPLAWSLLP
How it was run: as §1

[13] = biological target: human kinome (Homo sapiens, UniProt Q05655); experiment: DiscoverX KINOMEscan kinase profiling (468 assays); details: read-out: Percent Control
Chain of human kinome (Homo sapiens, UniProt Q05655) (Q05655 whole entry): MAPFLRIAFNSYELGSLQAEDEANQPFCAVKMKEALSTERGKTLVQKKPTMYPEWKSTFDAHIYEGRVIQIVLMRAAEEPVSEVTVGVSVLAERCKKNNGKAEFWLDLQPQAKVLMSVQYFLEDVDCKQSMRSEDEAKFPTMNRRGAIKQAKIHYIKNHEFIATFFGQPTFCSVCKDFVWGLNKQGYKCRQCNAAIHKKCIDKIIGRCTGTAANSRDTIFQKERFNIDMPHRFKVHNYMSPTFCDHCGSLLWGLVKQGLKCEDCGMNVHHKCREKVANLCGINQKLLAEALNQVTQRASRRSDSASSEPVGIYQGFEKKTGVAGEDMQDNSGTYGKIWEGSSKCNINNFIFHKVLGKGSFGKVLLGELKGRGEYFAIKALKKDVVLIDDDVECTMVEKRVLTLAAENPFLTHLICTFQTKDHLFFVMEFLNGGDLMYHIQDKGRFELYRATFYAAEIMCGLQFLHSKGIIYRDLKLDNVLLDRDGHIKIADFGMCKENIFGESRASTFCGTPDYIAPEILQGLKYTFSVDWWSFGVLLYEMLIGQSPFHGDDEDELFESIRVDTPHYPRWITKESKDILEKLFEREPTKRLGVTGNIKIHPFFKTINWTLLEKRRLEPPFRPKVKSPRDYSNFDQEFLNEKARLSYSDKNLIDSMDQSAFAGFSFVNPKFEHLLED
How it was run: as §1

[14] = biological target: human kinome (Homo sapiens, UniProt P08631); experiment: DiscoverX KINOMEscan kinase profiling (468 assays); details: HCK; 100 nM; read-out: Percent Control
How it was run: as §1

[15] = biological target: human kinome (Homo sapiens, UniProt P37173); experiment: DiscoverX KINOMEscan kinase profiling (468 assays); details: kinase TGFBR2 (Entrez TGFBR2); compound concentration 1000 nM; read-out: Percent Control
How it was run: as §1

[16] = biological target: human kinome (Homo sapiens, UniProt Q07002); experiment: DiscoverX KINOMEscan kinase profiling (468 assays); details: read-out: Percent Control
Chain of human kinome (Homo sapiens, UniProt Q07002) (Q07002 whole entry): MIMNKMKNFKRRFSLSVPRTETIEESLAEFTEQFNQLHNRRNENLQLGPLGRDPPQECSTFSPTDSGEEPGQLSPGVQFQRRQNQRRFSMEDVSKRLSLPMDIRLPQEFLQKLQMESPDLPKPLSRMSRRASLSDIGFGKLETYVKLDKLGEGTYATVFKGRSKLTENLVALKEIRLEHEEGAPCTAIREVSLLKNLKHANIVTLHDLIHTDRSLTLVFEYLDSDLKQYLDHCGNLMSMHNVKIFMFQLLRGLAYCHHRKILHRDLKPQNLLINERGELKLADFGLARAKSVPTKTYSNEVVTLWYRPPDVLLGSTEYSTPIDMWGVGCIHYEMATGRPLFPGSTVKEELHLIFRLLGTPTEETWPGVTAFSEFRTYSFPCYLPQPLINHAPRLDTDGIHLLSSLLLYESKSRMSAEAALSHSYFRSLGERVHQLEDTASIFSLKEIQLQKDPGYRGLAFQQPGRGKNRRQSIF
How it was run: as §1

[17] = biological target: human kinome (Homo sapiens, UniProt P42336, E545K); experiment: DiscoverX KINOMEscan kinase profiling (468 assays); details: read-out: Percent Control
Chain of human kinome (Homo sapiens, UniProt P42336, E545K) (P42336 whole entry E545K): as the sequence (P42336 whole entry H1047L) above, with E545K, L1047H counted along it
How it was run: as §1

[18] = biological target: human kinome (Homo sapiens, UniProt P35916); experiment: DiscoverX KINOMEscan kinase profiling (468 assays); details: FLT4; 100 nM; read-out: Percent Control
How it was run: as §1

[19] = biological target: human kinome (Homo sapiens, UniProt P07947); experiment: DiscoverX KINOMEscan kinase profiling (468 assays); details: kinase YES (Entrez YES1); compound concentration 1000 nM; read-out: Percent Control
How it was run: as §1

[20] = biological target: human kinome (Homo sapiens, UniProt Q9BXA7); experiment: DiscoverX KINOMEscan kinase profiling (468 assays); details: kinase TSSK1B (Entrez TSSK1B); compound concentration 1000 nM; read-out: Percent Control
How it was run: as §1

[21] = biological target: human kinome (Homo sapiens, UniProt O75914); experiment: DiscoverX KINOMEscan kinase profiling (468 assays); details: read-out: Percent Control
Chain of human kinome (Homo sapiens, UniProt O75914) (O75914 whole entry): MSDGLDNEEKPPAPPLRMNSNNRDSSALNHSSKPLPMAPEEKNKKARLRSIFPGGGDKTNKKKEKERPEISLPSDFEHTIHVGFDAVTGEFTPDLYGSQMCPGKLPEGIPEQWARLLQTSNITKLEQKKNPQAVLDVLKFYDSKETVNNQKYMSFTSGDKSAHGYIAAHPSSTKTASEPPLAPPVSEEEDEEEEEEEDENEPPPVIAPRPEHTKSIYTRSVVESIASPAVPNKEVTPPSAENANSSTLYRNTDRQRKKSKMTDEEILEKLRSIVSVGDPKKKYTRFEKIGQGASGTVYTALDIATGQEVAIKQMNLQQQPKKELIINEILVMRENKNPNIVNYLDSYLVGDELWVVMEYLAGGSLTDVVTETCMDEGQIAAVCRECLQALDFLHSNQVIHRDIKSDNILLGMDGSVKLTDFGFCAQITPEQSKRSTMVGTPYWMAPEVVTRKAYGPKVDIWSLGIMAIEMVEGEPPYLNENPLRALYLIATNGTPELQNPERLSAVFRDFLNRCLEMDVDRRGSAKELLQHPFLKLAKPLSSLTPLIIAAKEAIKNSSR
How it was run: as §1

[22] = biological target: human kinome (Homo sapiens, UniProt Q13546); experiment: DiscoverX KINOMEscan kinase profiling (468 assays); details: kinase RIPK1 (Entrez RIPK1); compound concentration 1000 nM; read-out: Percent Control
How it was run: as §1

[23] = biological target: human kinome (Homo sapiens, UniProt P16591); experiment: DiscoverX KINOMEscan kinase profiling (468 assays); details: FER; 100 nM; read-out: Percent Control
How it was run: as §1

[24] = biological target: human kinome (Homo sapiens, UniProt Q14164); experiment: DiscoverX KINOMEscan kinase profiling (468 assays); details: IKK-epsilon (Entrez IKBKE); 100 nM; read-out: Percent Control
How it was run: as §1

[25] = biological target: human kinome (Homo sapiens, UniProt P51955); experiment: DiscoverX KINOMEscan kinase profiling (468 assays); details: read-out: Percent Control
Chain of human kinome (Homo sapiens, UniProt P51955) (P51955 whole entry): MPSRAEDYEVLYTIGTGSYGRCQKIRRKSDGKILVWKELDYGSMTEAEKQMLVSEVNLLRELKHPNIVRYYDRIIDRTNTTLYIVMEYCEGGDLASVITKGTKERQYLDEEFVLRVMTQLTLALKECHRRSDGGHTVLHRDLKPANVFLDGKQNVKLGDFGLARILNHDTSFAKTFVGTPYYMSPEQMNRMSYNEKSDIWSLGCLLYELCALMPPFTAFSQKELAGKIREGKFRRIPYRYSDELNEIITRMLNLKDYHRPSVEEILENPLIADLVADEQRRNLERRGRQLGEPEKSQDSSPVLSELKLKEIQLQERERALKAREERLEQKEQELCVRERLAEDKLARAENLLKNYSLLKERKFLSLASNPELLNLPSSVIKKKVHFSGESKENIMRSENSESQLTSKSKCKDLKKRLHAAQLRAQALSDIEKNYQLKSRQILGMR
How it was run: as §1

[26] = biological target: human kinome (Homo sapiens, UniProt Q9H3Y6); experiment: DiscoverX KINOMEscan kinase profiling (468 assays); details: kinase SRMS (Entrez SRMS); compound concentration 1000 nM; read-out: Percent Control
How it was run: as §1

[27] = biological target: human kinome (Homo sapiens, UniProt P36888, K663Q); experiment: DiscoverX KINOMEscan kinase profiling (468 assays); details: FLT3(K663Q); 100 nM; read-out: Percent Control
How it was run: as §1

[28] = biological target: human kinome (Homo sapiens, UniProt Q8IVW4); experiment: DiscoverX KINOMEscan kinase profiling (468 assays); details: CDKL3; 100 nM; read-out: Percent Control
How it was run: as §1

[29] = biological target: human kinome (Homo sapiens, UniProt Q86UX6); experiment: DiscoverX KINOMEscan kinase profiling (468 assays); details: kinase YANK3 (Entrez STK32C); compound concentration 1000 nM; read-out: Percent Control
How it was run: as §1

[30] = biological target: TLK1 (Homo sapiens, UniProt Q9UKI8); experiment: KINOMEscan: TLK1; details: 100 nM, read-out: Percent Control

COc1cc(F)ccc1-c1cc(Nc2cc(CS(C)(=N)=O)ccn2)ncc1F (stereo not drawn) [VIP152]
% Inh. [1]: 11% | remaining binding at 0.1 µM [2]: 100% | remaining binding at 0.1 µM [3]: 80% | remaining binding at 0.1 µM ([4]; PIM3, 100 nM): 100% | remaining binding at 1 µM ([4]; kinase PIM3 (Entrez PIM3), compound concentration 1000 nM): 100% | remaining binding at 0.1 µM [5]: 79% | remaining binding at 1 µM ([6]; kinase p38-alpha (Entrez MAPK14), compound concentration 1000 nM): 100% | remaining binding at 0.1 µM ([6]; p38-alpha (Entrez MAPK14), 100 nM): 100% | remaining binding at 0.1 µM [7]: 100% | remaining binding at 0.1 µM ([8]; PIK3CA(H1047L), 100 nM): 100% | remaining binding at 1 µM ([8]; kinase PIK3CA(H1047L) (Entrez PIK3CA), compound concentration 1000 nM): 100% | remaining binding at 1 µM [9]: 44% | remaining binding at 0.1 µM [10]: 100% | remaining binding at 0.1 µM [11]: 100% | remaining binding at 0.1 µM ([12]; PIM2, 100 nM): 100% | remaining binding at 1 µM ([12]; kinase PIM2 (Entrez PIM2), compound concentration 1000 nM): 100% | remaining binding at 0.1 µM ([13]; PRKCD, 100 nM): 100% | remaining binding at 1 µM ([13]; kinase PRKCD (Entrez PRKCD), compound concentration 1000 nM): 83% | remaining binding at 0.1 µM [14]: 97% | remaining binding at 1 µM [15]: 93% | remaining binding at 0.1 µM ([16]; PCTK3 (Entrez CDK18), 100 nM): 100% | remaining binding at 1 µM ([16]; kinase PCTK3 (Entrez CDK18), compound concentration 1000 nM): 84% | remaining binding at 0.1 µM ([17]; PIK3CA(E545K), 100 nM): 92% | remaining binding at 1 µM ([17]; kinase PIK3CA(E545K) (Entrez PIK3CA), compound concentration 1000 nM): 93% | remaining binding at 0.1 µM [18]: 100% | remaining binding at 1 µM [19]: 86% | remaining binding at 1 µM [20]: 92% | remaining binding at 0.1 µM ([21]; PAK3, 100 nM): 100% | remaining binding at 1 µM ([21]; kinase PAK3 (Entrez PAK3), compound concentration 1000 nM): 62% | remaining binding at 1 µM [22]: 79% | remaining binding at 0.1 µM [23]: 100% | remaining binding at 0.1 µM [24]: 100% | remaining binding at 0.1 µM ([25]; NEK2, 100 nM): 100% | remaining binding at 1 µM ([25]; kinase NEK2 (Entrez NEK2), compound concentration 1000 nM): 84% | remaining binding at 1 µM [26]: 83% | remaining binding at 0.1 µM [27]: 100% | remaining binding at 0.1 µM [28]: 100% | remaining binding at 1 µM [29]: 95% | remaining binding at 0.1 µM [30]: 98%
